# Assays:
# [1] = test system: vitamin D (25, 1,25, 24,25); test: Vitamin D (25, 1,25, 24,25) levels by LC-MS/MS, trials IDA-04/IDA-05; assay type: in vivo, human; conditions: IDA-04 and IDA-05 combined
# Experimental: The term “serum vitamin D” as used herein refers to the level of vitamin Ds, in particular 25-hydroxyvitamin D, 1,25-dihydroxyvitamin D, and 24,25-dihydroxyvitamin D, in blood serum as measured by Liquid Chromatography and Tandem Mass Spectrometry (LC-MS/MS).
# The trial was a randomized, open-label, comparative trial. […]
# The following safety laboratory assessments were analysed: • S-phosphate: inorganic phosphorous forms an ammonium phosphomolybdate complex having the formula (NH4)3[PO4](MoO3)12 with ammonium molybdate in the presence of sulfuric acid. The complex was determined photometrically in the ultraviolet region (340 nm) of the spectrum using the Roche Modular and Cobas Analyzer. • iFGF23 and cFGF23: the human intact FGF23 was measured by the 2nd generation Elisa kit manufactured by Immonotropics, Inc, San Clemente, CA. […] The human C-terminal FGF23 was measured by the Elisa kit manufactured by Immonotropics, Inc, San Clemente, CA. […] After evaporation under nitrogen, the residue was reconstituted and analyzed using Liquid Chromatography (LC) with Tandem Mass Spectrometric detection (MS/MS). […]
# [2] = test system: biochemical bone/muscle markers; test: Biochemical bone/muscle markers (PINP, CTx, bone specific and total alkaline phosphatase), trials IDA-04/IDA-05; assay type: in vivo, human
# Description: The term “serum Bone Specific Alkaline Phosphatase” as used herein refers to the level of Bone specific Alkaline Phosphatase in blood serum as measured using the Beckman-Coulter Ostase assay which is a one-step immunoenzymatic chemiluminescence assay using a mouse monoclonal antibody specific to Bone Specific Alkaline Phosphatase (BAP).
# The term “serum Alkaline Phosphatase” as used herein refers to the level of Alkaline Phosphatase in blood serum as measured enzymatically using a Roche Modular Analyzer. In the presence of magnesium and zinc ions, p-nitrophenyl phosphate is cleaved by phosphatase into phosphate and p-nitrophenol. The p-nitrophenol released is proportional to the Alkaline Phosphatase activity and is measured photometrically.
# The term “serum N-terminal Propeptide of Type I Collagen (PINP)” as used herein refers to the level of PINP in blood serum as measured using a sandwich principle, electrochemiluminescence immunoassay (ECLIA) on a Cobas e601 Analyzer. During the first incubation, PINP in the sample and a biotinylated monoclonal PINP-specific antibody are incubated together. During the second incubation, streptavidin-coated labelled microparticles and a monoclonal PINP-specific antibody labelled with ruthenium complex (Trs (2,2-bipyridyl)ruthenium (II)-complex (Ru(bpy)23+)) are added to form a sandwich complex, which binds to the solid phase via interaction of biotin and streptavidin. The reaction mixture is aspirated into the measuring cell where the microparticles are magnetically captured onto the surface of the electrode. A voltage is applied to the electrode, which induces chemiluminescent emission, which is measured by a photomultiplier. Results are determined via a calibration curve, which is instrument-specifically generated by a 2-point calibration and a master curve provided via the reagent barcode.
# The term “serum Carboxy-terminal Collagen Crosslinks (CTx)” as used herein refers to the level of CTx in blood serum as measured using a sandwich principle, electrochemiluminescence immunoassay (ECLIA) on a Cobas e601 Analyzer. During the first incubation, 50 μL of sample and biotinylated monoclonal anti-beta-CrossLaps antibodies are incubated together. During the second incubation, streptavidin-coated labelled microparticles and a monoclonal P-beta-CrossLaps-specific antibody labelled with ruthenium complex are added to form a sandwich complex, which binds to the solid phase via interaction of biotin and streptavidin. The reaction mixture is aspirated into the measuring cell where the microparticles are magnetically captured onto the surface of the electrode. Unbound substances are then removed with ProCell. A voltage is applied to the electrode, which induces chemiluminescent emission, which is measured by a photomultiplier. Results are determined via a calibration curve, which is instrument-specifically generated by a 2-point calibration and a master curve provided via the reagent barcode.
# The trial was a randomized, open-label, comparative trial. Subjects with Iron Deficiency Anaemia (IDA) were randomized 1:1 to one treatment course of one of the following treatments: • Group A: iron isomaltoside 1000 (Monofer®, Pharmacosmos, Holbok, Denmark, termed iron isomaltoside in the following), 1000 mg at baseline • Group B: ferric carboxymaltose (Ferinject®/Injectafer®, Vifor Inc, Switzerland), 750 mg at baseline and day 7, cumulative dose: 1500 mg […]
substance,measurement,setting,value
ferric carboxymaltose [FCM],"1,25-dihydroxyvitamin D",[1],decrease
same,"24,25-dihydroxyvitamin D",[1],increase
same,Alkaline Phosphatase,[2]; compared to IMM,statistically significant increase
same,Bone Specific Alkaline Phosphatase,[2]; compared to IMM,statistically significant increase
same,CTx values,[2]; compared to IMM,statistically significant lower
same,N-terminal PINP values,[2]; compared to IMM,statistically significant lower
same,bone turnover,[2]; treatment according to current practice,increased
